Data published in patent publication US11254663B2 (BRISTOL-MYERS SQUIBB COMPANY, priority 2019, dated 2022).

Biological target: FXR (Homo sapiens (Human), UniProt Q96RI1)
Test: FXR EC50 (FXR agonist potency reported with each Example)
Type: cell-based

FXR, sequence (Q96RI1 262-486): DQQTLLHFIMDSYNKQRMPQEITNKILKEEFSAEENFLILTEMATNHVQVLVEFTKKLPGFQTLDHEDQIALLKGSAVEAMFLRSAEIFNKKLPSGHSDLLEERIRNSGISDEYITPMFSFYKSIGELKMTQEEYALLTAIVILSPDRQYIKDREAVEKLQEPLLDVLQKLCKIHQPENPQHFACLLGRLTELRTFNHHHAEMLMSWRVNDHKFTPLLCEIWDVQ

Going from CC(C)(O)c1coc(-c2cccc(N(CC34CCC(c5nc(C6CC6)no5)(CC3)CC4)C(=O)C3CC(F)(F)C3)c2)n1 [Example 16, N-((4-(3-cyclopropyl-1,2,4-oxadiazol-5-yl)bicyclo[2.2.2]octan-1-yl)methyl)-3,3-difluoro-N-(3-(4-(2-hydroxypropan-2-yl)oxazol-2-yl)phenyl)cyclobutane-1-carboxamide] to Cn1nc(C23CCC(CN(C(=O)C4CC(F)(F)C4)c4cccc(-c5nc(C6CC6)no5)c4)(CC2)CC3)cc1C1CC1 [Example 125, N-(3-(3-cyclopropyl-1,2,4-oxadiazol-5-yl)phenyl)-N-((4-(5-cyclopropyl-1-methyl-1H-pyrazol-3-yl)bicyclo[2.2.2]octan-1-yl)methyl)-3,3-difluorocyclobutane-1-carboxamide], the EC50 rises from 318 nM to 480 nM (1.5-fold). The first is the more potent here.

First: CCc1noc(-c2cccc(N(CC34CCC(c5nc(C)no5)(CC3)CC4)C(=O)C34CC(F)(C3)C4)c2)n1 [Example 3, N-(3-(3-ethyl-1,2,4-oxadiazol-5-yl)phenyl)-3-fluoro-N-((4-(3-methyl-1,2,4-oxadiazol-5-yl)bicyclo[2.2.2]octan-1-yl)methyl)bicyclo[1.1.1]pentane-1-carboxamide]
Second: CC(C)c1noc(C23CCC(CN(C(=O)C45CC(F)(C4)C5)c4cccc(-c5nc(C6CC6)no5)c4)(CC2)CC3)n1 [Example 89, N-(3-(3-cyclopropyl-1,2,4-oxadiazol-5-yl)phenyl)-3-fluoro-N-((4-(3-isopropyl-1,2,4-oxadiazol-5-yl)bicyclo[2.2.2]octan-1-yl)methyl)bicyclo[1.1.1]pentane-1-carboxamide]
The EC50 of the first is 7.4-fold higher: 346 nM for the first, 47 nM for the second.

CCc1noc(-c2cccc(N(CC34CCC(c5nc(C6CC6)no5)(CC3)CC4)C(=O)C3CC(C(F)F)C3)c2)n1 (stereo not shown) [Example 4, N-((4-(3-cyclopropyl-1,2,4-oxadiazol-5-yl)bicyclo[2.2.2]octan-1-yl)methyl)-3-(difluoromethyl)-N-(3-(3-ethyl-1,2,4-oxadiazol-5-yl)phenyl)cyclobutane-1-carboxamide] and O=C(C1CC(C(F)F)C1)N(CC12CCC(c3nc(C4CC4)no3)(CC1)CC2)c1cccc(-c2cnc(C3CC3)o2)c1 (stereo not shown) [Example 24, N-((4-(3-cyclopropyl-1,2,4-oxadiazol-5-yl)bicyclo[2.2.2]octan-1-yl)methyl)-N-(3-(2-cyclopropyloxazol-5-yl)phenyl)-3-(difluoromethyl)cyclobutane-1-carboxamide] are within 1.5-fold of each other in EC50: 322 nM for the first, 281 nM for the second.

O=C(N(CC12CCC(c3nc(C(F)F)no3)(CC1)CC2)c1cccc(-c2noc(C3CC3)n2)c1)C12CC(F)(C1)C2 [Example 172, N-(3-(5-cyclopropyl-1,2,4-oxadiazol-3-yl)phenyl)-N-((4-(3-(difluoromethyl)-1,2,4-oxadiazol-5-yl)bicyclo[2.2.2]octan-1-yl)methyl)-3-fluorobicyclo[1.1.1]pentane-1-carboxamide] and O=C(N(CC12CCC(c3noc(C4CC4)n3)(CC1)CC2)c1cccc(-c2nc(C3CC3)no2)c1)C12CC(F)(C1)C2 [Example 116, N-((4-(5-cyclopropyl-1,2,4-oxadiazol-3-yl)bicyclo[2.2.2]octan-1-yl)methyl)-N-(3-(3-cyclopropyl-1,2,4-oxadiazol-5-yl)phenyl)-3-fluorobicyclo[1.1.1]pentane-1-carboxamide] are within 1.5-fold of each other in EC50: 154 nM for the first, 117 nM for the second.

First: N#CC1(c2ccc(C34CCC(CN(C(=O)C5CC(C(F)F)C5)c5cccc(-c6nnc(C7CC7)o6)c5)(CC3)CO4)cc2)CC1 (stereo not shown) [Example 144, N-((1-(4-(1-Cyanocyclopropyl)phenyl)-2-oxabicyclo[2.2.2]octan-4-yl)methyl)-N-(3-(5-cyclopropyl-1,3,4-oxadiazol-2-yl)phenyl)-3-(difluoromethyl)cyclobutane-1-carboxamide]
Second: Cn1nc(C2CC2)cc1C12CCC(CN(C(=O)C34CC(F)(C3)C4)c3cccc(-c4noc(C(C)(C)C)n4)c3)(CC1)CC2 [Example 165, N-(3-(5-(tert-butyl)-1,2,4-oxadiazol-3-yl)phenyl)-N-((4-(3-cyclopropyl-1-methyl-1H-pyrazol-5-yl)bicyclo[2.2.2]octan-1-yl)methyl)-3-fluorobicyclo[1.1.1]pentane-1-carboxamide]
The EC50 of the first is 17-fold higher: 2160 nM for the first, 124 nM for the second. The second is the more potent here.
